# How the values were obtained:
# [1] = test system: STAT1 S727 phosphorylation; test: STAT1 S727 phosphorylation by immunoblotting in HCT116 colon carcinoma cells; type: cell-based, human; conditions: for inhibition of STAT1 S727 phosphorylation: HCT116, 24 hr treatment, different concentrations
# Procedure: (§1) STAT1 S727 phosphorylation was analyzed by immunoblotting using the following primary antibodies: Phospho-Stat1 (Ser727) (D3B7) Rabbit mAb #8826 (used at 1:1000 dilution) and Rabbit Ab #9177 (used at 1:500 dilution) from Cell Signaling Technology (Danvers, Mass.), and total-STAT1 Stat1 p84/p91 Antibody (M-22): sc-592 from Santa Cruz Biotechnology (Dallas, Tex.), used at 1:500 dilution. As a loading control an antibody against a housekeeping protein GAPDH (6C5 mouse monoclonal antibody from Abcam), was used at 1:1000 dilution.
# In the experiments shown in FIG. 2, this analysis was continued in HCT116 human colon carcinoma cells.
# [2] = test system: STAT1 S727 phosphorylation; test: STAT1 S727 phosphorylation in whole-cell protein extracts of 293 cells; type: cell-based, human; conditions: 5 μM
# Procedure: (§2) Results are shown for three biological replicates.
# as §1
# [3] = test system: TNFα-induced CXCL1 and CXCL2 transcription; test: Induction of NFκB-regulated genes by TNFα in HEK-293 cells; type: cell-based, human
# [4] = test system: Pol II CTD phosphorylation; test: Immunoblotting of total Pol II CTD phosphorylation in whole-cell lysates of 293 cells; type: cell-based, human; conditions: 293 whole-cell lysates, same conditions as the ChIP
# Text: as §2
# [5] = test system: proteins bound at NFκB-regulated and housekeeping genes; test: Chromatin immunoprecipitation (ChIP) with quantitative real-time PCR in 293 cells; type: cell-based, human
# Text: Sonicated chromatin was immunoprecipitated with the antibodies against the indicated proteins. The ChIP preps were used for quantitative real-time PCR amplification of different segments of the indicated genes (X-axes show the positions of the tested segments relative to transcription start sites). The results of this analysis for all four conditions (blue, control; red, Senexin A; green, TNFα; purple, TNFα plus Senexin A) are shown, with the genomic positions of the PCR primers diagrammed at the top of the figure.
# (Burke et al., 2014) have recently shown that STAT1 cooperates with NFκB in the induction of CXCL1 and CXCL2 transcription by IL-1β in rat insulinoma cells. We have therefore tested whether TNFα-induced CXCL1 and CXCL2 transcription in HEK-293 cells involves STAT1 and whether pSTAT1 in this system is affected by CDK8/19 inhibition. This analysis was conducted by chromatin immunoprecipitation (ChIP) of 293 cells that were pre-treated with 5 μM CDK8/19 inhibitor Senexin A (Porter et al., 2012) or carrier for one hour, at which point either TNFα at 10 ng/ml or carrier was added for 30 min. Sonicated chromatin was extracted as described (Galbraith et al., 2013) and immunoprecipitated with the antibodies against the indicated proteins. […] The results of this analysis for all four conditions (untreated, Senexin A, TNFα, and TNFα plus Senexin A) are shown in FIG. 5, with the genomic positions of the tested ChIP primers diagrammed at the top of the figure.
# [6] = test system: STAT1 S727 phosphorylation; test: STAT1 S727 phosphorylation by immunoblotting in LNCaP-LN3 derivatives (DV and DK); type: cell-based, human; conditions: treated for 5 hrs
# Procedure: as §1
# In the experiment shown in FIG. 1, human LNCaP-LN3 cells, an in vivo-derived metastatic variant of LNCaP prostate cancer cells were used. We have compared STAT1 S727 phosphorylation in two derivatives of LNCaP-LN3, one with shRNA knockdown of both CDK8 and CDK19 (CDK8 shRNA was expressed from lentiviral vector PHLB carrying blasticidin resistance marker; CDK19 shRNA was expressed from lentiviral vector pLKO.1 carrying puromycin resistance marker) (DK, double knockdown), and in control cells transduced with insert-free PHLB and pLK0.1 vectors (DV, double vector). […] The immunoblotting for phospho-STAT1 S727 (pSTAT1) and total STAT1 (tSTAT1) is shown in FIG. 1A, and image quantitation for the ratio of pSTAT1/tSTAT1 is shown in FIG. 1B. […]
# [7] = test system: STAT1 S727 phosphorylation; test: In situ immunofluorescence staining for phospho-STAT1 S727 and total STAT1 in MCF7 cells; type: cell-based, human
# [8] = test system: STAT1 in complexes with CDK8; test: CDK8 immunoprecipitation from HCT116 cells, immunoblotted for total STAT1 or phospho-STAT1 S727; type: cell-based, human; conditions: HCT116, 24 hrs, 10 μM
# Text: To determine whether the effect of CDK8/19 inhibitors on STAT1 S727 phosphorylation involved direct interaction between CDK8 and STAT1, we have asked if STAT1 and CDK8 would co-immunoprecipitate, and if so, whether CDK8/19 kinase inhibition would affect STAT1 phosphorylation in complexes with CDK8.
# [9] = test system: STAT1 S727 phosphorylation; test: In situ immunofluorescence staining for phospho-STAT1 S727 and total STAT1 in HCT116 cells; type: cell-based, human
# [10] = test system: STAT1 S727 phosphorylation; test: STAT1 S727 phosphorylation by immunoblotting in SKBR3 breast cancer cells; type: cell-based, human; conditions: SKBR3, 1 μM or 5 μM, after 30 min of treatment
# Procedure: as §1
# (§3) FIG. 3 illustrates the inhibition of basal STAT1 S727 phosphorylation by CDK8/19 inhibitors in human breast cancer cell lines.
# [11] = test system: STAT1 S727 phosphorylation; test: STAT1 S727 phosphorylation by immunoblotting in MCF7 breast cancer cells; type: cell-based, human
# Procedure: as §1, §3
# [12] = test system: STAT1 S727 phosphorylation; test: STAT1 S727 phosphorylation by immunoblotting in MDA-MB-361 breast cancer cells; type: cell-based, human; conditions: MDA-MB-361, 6 hr, 5 μM
# Procedure: as §1, §3
# [13] = test system: STAT1 S727 phosphorylation; conditions: Bancerek et al., 2013; cited from earlier work
# [14] = 5 μM pre-treatment one hour, TNFα 10 ng/ml 30 min
compound,measurement,setting,value
CN(C)C1CC23CCC4(O2)C(=CCC2(C)C(c5ccc6ccncc6c5)=CCC24)C=C3C(O)C1O (stereo not drawn) [16-didehydro-cortistatin A],inhibition of STAT1 S727 phosphorylation,[1],inhibited STAT1 S727 phosphorylation similarly to Senexin B
N#Cc1ccc2ncnc(NCCc3ccccc3)c2c1 [Senexin A],STAT1 S727 phosphorylation in whole-cell protein extracts,[2],strongly inhibited
same,treatment time after which the effect on STAT1 S727 phosphorylation is noticeable,[2],15 min
same,treatment time after which the effect on STAT1 S727 phosphorylation is very strong,[2],1 h
same,regulation of housekeeping genes HGPRT and GAPDH,[3],not regulated
same,inhibition of TNFα induction of CXCL1,"[3]; 5 μM, TNFα 10 ng/ml",~10 fold
same,inhibition of TNFα induction of CXCL2,"[3]; 5 μM, TNFα 10 ng/ml",~10 fold
same,inhibition of TNFα induction of NFKBIA,"[3]; 5 μM, TNFα 10 ng/ml",~1.4 fold
same,total Pol II CTD phosphorylation,[4],not significantly affected
same,Pol II recruitment and distribution along the regulated genes,[5]; [14],moderate effect
same,recruitment of p65 subunit of NFκB and CDK8 to promoters of NFκB-regulated genes,[5]; [14],little or no effect
same,phospho-STAT1 S727 (pSTAT1) at CXCL1,"[5]; 5 μM, TNFα",a strong effect
same,phospho-STAT1 S727 (pSTAT1) at NFKBIA,"[5]; 5 μM, TNFα",a weaker effect
same,phospho-STAT1 S727 (pSTAT1) at the housekeeping genes,"[5]; 5 μM, TNFα",little or no effect
same,"Pol II CTD phosphorylation (S5P, S2P) at the strongly regulated genes","[5]; 5 μM, TNFα, CXCL1 and CXCL2",strongly inhibited
same,association of pSTAT1 with any of the tested genes,"[5]; absence of TNFα, total of 90 min treatment",unaffected
CN1CCN(C(=O)c2ccc3cc(CCNc4ncnc5ccc(C#N)cc45)ccc3c2)CC1 [Senexin B],concentration from which STAT1 S727 phosphorylation plateaus at a low level,[6]; LNCaP-LN3 DV and DK cells,1 µM
same,concentration from which basal STAT1 S727 phosphorylation is decreased (lowest concentration),"[6]; LNCaP-LN3 cells, pSTAT1/tSTAT1 ratio",16 nM
same,staining with phospho-STAT1 S727 antibody in situ,[7],inhibition of STAT1 S727 phosphorylation
same,staining with the antibody against total STAT1,[7],no apparent effect
same,treatment time after which inhibition of STAT1 S727 phosphorylation is noticeable,"[1]; HCT116, 5 μM",15 min
same,treatment time after which inhibition of STAT1 S727 phosphorylation is very strong,"[1]; HCT116, 5 μM",1 h
same,inhibition of STAT1 S727 phosphorylation,[1],concentration-dependent inhibition
same,binding of total STAT1 to CDK8 (co-immunoprecipitation),[8],does not affect the binding of total STAT1
same,phospho-STAT1 S727 in CDK8 immunoprecipitate,[8],inhibits its phosphorylation at S727
same,staining with phospho-STAT1 S727 antibody in situ,[9],inhibition of STAT1 S727 phosphorylation
same,staining with the antibody against total STAT1,[9],no apparent effect
same,"inhibition of STAT1 S727 phosphorylation, time course",[10],strong inhibition
same,"inhibition of STAT1 S727 phosphorylation, concentration series","[11]; MCF7, 24 hr treatment, indicated concentrations",concentration-dependent inhibition
same,inhibition of STAT1 S727 phosphorylation,"[11]; MCF7, 24 hr, 5 μM, two antibodies (#8826 and #9177)",inhibition of STAT1 S727 phosphorylation
same,inhibition of STAT1 S727 phosphorylation,[12],inhibits STAT1 S727 phosphorylation
CN1CC[C@H](c2c(O)cc(O)c3c(=O)cc(-c4ccccc4Cl)oc23)[C@H](O)C1 [flavopiridol],enhancement of STAT1 S727 phosphorylation by LPS or anisomycin,[13],failed to inhibit
Cortistatin A,inhibition of STAT1 S727 phosphorylation,[1],concentration-dependent inhibition
